Laboratory results from ChEMBL document CHEMBL1201862, “PubChem BioAssay data set” (2004).
Activity calls are given as the source filed them.

Columns and labels:
Trypsin = Trypsin (Sus scrofa, UniProt P00761); assay: porcine trypsin inhibitors, dose response, selectivity assay for Rce1 protease inhibitor project, biochemical, quenched peptide fluorescence, cherry-pick (AID 488789)
[1] = mammalian cell cytotoxicity, dose response, cytotoxicity control, plate reader, cherry-pick samples (AID 504397); format: functional, cell-based
CAAX prenyl protease 2 = biological target: T1, CAAX prenyl protease 2 (Saccharomyces cerevisiae S288c, UniProt Q03530); format: biochemical
T1 sequence (Q03530 whole entry): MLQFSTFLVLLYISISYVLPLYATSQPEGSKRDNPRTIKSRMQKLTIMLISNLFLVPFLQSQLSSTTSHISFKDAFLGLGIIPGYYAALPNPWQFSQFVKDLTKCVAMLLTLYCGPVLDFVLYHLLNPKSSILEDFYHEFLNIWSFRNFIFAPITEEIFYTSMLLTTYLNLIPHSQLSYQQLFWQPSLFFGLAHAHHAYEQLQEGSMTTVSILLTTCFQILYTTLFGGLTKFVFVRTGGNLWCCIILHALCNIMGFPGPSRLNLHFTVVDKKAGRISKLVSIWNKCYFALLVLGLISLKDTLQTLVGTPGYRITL

[2] = biological target: Glucose-6-phosphate 1-dehydrogenase (Homo sapiens, UniProt P11413); assay: human G6PD enzyme inhibitors, dose response, selectivity assay for P. falciparum G6PD inhibitor project, biochemical, fluorescence (AID 504792); format: functional
Glucose-6-phosphate 1-dehydrogenase, sequence (P11413 whole entry): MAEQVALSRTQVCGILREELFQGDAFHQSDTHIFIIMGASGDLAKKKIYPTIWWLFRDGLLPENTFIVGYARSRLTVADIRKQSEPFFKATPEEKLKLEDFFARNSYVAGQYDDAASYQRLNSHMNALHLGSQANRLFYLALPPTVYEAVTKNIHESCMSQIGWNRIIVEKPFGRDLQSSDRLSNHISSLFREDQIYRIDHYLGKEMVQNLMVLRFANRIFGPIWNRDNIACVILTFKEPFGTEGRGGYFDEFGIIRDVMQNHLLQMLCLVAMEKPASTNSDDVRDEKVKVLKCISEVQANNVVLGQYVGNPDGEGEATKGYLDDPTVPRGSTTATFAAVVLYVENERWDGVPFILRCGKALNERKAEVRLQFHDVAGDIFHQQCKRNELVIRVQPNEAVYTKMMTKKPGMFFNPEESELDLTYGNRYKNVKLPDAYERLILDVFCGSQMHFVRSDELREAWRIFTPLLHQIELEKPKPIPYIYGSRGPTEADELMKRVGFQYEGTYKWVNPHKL

[3] = biological target: G-protein coupled receptor 55 (Homo sapiens, UniProt Q9Y2T6); assay: GPR55 agonists via beta-arrestin recruitment, primary screen, imaging, U2OS cells, beta-arrestin-GFP redistribution (AID 1961); format: functional
G-protein coupled receptor 55, sequence (Q9Y2T6 whole entry): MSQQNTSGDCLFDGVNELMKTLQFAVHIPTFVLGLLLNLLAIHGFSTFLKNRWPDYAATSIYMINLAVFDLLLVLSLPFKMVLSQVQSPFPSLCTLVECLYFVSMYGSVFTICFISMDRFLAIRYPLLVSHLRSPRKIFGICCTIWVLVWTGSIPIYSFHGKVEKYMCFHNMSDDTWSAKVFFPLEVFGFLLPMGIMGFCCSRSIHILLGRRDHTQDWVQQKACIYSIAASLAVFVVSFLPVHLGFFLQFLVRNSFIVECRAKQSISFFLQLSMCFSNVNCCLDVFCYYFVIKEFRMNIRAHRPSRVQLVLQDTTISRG

[4] = biological target: T2, Tyrosine-protein phosphatase non-receptor type 22 (Homo sapiens, UniProt Q9Y2R2); assay: SAR LYP1 Fluorescent Assay using OMFP substrate for In Vitro dose response studies - Set 3. [Related pubchem assays (depositor defined):AID1779, AID1784, AID2140, AID2686]; format: functional
T2 sequence (Q9Y2R2 whole entry): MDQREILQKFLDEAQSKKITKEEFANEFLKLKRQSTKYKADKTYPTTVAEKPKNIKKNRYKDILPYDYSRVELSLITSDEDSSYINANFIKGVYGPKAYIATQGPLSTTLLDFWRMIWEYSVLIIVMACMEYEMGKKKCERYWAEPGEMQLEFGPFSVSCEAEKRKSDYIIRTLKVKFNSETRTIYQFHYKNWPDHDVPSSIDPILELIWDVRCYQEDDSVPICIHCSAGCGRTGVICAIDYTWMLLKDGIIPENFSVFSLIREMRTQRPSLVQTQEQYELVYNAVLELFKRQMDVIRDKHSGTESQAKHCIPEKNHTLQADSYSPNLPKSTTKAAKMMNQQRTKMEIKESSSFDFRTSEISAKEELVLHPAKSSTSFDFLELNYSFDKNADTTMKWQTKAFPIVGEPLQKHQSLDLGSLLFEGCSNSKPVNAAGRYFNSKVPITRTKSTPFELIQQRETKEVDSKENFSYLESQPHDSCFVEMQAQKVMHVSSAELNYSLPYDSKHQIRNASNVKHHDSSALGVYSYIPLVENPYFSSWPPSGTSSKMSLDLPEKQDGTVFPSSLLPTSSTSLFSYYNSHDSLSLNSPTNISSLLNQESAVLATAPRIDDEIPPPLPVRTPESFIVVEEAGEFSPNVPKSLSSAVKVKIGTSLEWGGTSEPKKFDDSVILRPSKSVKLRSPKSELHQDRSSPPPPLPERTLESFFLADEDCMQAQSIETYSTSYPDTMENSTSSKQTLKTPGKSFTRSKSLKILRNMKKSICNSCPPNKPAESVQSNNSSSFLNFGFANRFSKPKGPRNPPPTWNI

[5] = biological target: T2, Tyrosine-protein phosphatase non-receptor type 22; assay: SAR LYP1 Fluorescent Assay using OMFP substrate for In Vitro dose response studies - Set 2. [Related pubchem assays (depositor defined):AID1779, AID1784, AID2140, AID449726, AID488869]; format: functional
[6] = biological target: T2, Tyrosine-protein phosphatase non-receptor type 22; assay: SAR LYP1 Fluorescent Assay using pCAP substrate for In Vitro dose response studies - Set 2. [Related pubchem assays (depositor defined):AID1779, AID1784, AID2135, AID449727]; format: functional
[7] = biological target: Tyrosine-protein phosphatase non-receptor type 12 (Homo sapiens, UniProt Q05209); assay: SAR Selectivity Analysis of small molecule inhibitors of PEST using pCAP in a fluorescence assay. [Related pubchem assays (depositor defined):AID1779, AID1784, AID2135]; format: functional
Tyrosine-protein phosphatase non-receptor type 12, sequence (Q05209 whole entry): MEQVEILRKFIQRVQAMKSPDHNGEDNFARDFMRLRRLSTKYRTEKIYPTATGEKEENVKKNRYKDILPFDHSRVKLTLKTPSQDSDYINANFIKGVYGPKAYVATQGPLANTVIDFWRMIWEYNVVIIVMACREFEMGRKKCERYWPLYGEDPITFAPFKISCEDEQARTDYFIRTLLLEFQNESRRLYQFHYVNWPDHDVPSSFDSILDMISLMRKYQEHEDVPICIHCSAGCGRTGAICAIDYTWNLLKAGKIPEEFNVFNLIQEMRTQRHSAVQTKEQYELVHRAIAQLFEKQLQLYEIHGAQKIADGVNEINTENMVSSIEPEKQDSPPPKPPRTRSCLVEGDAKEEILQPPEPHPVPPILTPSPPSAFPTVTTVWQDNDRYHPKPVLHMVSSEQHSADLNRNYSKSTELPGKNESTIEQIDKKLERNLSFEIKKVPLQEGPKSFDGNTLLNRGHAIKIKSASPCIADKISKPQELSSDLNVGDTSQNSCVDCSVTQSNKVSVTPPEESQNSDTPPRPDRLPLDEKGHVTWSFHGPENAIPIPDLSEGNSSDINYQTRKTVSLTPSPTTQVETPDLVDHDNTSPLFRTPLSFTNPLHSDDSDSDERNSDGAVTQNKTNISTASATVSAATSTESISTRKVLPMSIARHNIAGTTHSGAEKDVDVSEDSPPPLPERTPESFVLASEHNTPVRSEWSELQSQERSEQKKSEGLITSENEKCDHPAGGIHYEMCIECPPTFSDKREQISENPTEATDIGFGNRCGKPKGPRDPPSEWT

[8] = biological target: T3, Tyrosine-protein phosphatase non-receptor type 7 (Homo sapiens, UniProt P35236); assay: HePTP (PTPN7) phosphatase inhibitor potency, SAR follow-up, biochemical, set 2 (AID 449736); format: functional
T3 sequence (P35236 whole entry): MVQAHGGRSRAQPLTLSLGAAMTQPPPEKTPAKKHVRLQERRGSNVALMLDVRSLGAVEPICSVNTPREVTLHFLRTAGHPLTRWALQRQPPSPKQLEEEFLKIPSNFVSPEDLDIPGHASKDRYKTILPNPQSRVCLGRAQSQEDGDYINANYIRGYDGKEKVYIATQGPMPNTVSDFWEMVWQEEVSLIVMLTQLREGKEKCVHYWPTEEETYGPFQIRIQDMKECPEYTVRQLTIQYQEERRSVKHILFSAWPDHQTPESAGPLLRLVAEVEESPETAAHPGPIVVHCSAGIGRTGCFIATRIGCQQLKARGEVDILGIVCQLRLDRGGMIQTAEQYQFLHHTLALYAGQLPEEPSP

[9] = biological target: T2, Tyrosine-protein phosphatase non-receptor type 22; assay: LYP (PTPN22) phosphatase inhibitor potency, SAR follow-up, biochemical, pCAP fluorogenic substrate, fluorescence, set 3 (AID 449727); format: functional
[10] = biological target: T2, Tyrosine-protein phosphatase non-receptor type 22; assay: PubChem AID 2135

Trypsin, sequence (P00761 whole entry): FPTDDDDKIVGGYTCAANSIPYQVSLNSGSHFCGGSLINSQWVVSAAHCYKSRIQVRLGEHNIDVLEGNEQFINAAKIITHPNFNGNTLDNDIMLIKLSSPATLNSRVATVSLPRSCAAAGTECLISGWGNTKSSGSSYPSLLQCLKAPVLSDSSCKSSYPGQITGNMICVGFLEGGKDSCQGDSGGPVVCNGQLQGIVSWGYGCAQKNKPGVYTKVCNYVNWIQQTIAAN

Structure (SMILES)	AC50 (Trypsin)	AC50 [1]	AC50 (CAAX prenyl protease 2)	IC50 [2]	EC50 [3]	IC50 [4]	IC50 [5]	IC50 [6]	IC50 [7]	IC50 [8]	IC50 [9]	IC50 [10]
Cc1cc(NC(=O)c2oc3ccccc3c2C)ccc1-n1cnnn1	> 100 µM (inactive)	> 350 µM (inactive)	0.558 µM (active)	> 80 µM (inactive)	2.68 µM (active)							
N#C/C(=C/c1ccc(OCc2ccc(F)cc2)c(Br)c1)c1ccc(C(=O)O)cc1						37 µM (active)	13.7 µM (active)	10.8 µM (active)	7.56 µM (active)	1.36 µM (active)	15.8 µM (active)	4.37 µM (active)
